Here are results for two molecules from article PMC3646888 (PLoS ONE, 2013).

The target in data set [1] is T1, CYP2B1 (Rattus norvegicus, UniProt P00176).
T1 sequence (P00176 1-491): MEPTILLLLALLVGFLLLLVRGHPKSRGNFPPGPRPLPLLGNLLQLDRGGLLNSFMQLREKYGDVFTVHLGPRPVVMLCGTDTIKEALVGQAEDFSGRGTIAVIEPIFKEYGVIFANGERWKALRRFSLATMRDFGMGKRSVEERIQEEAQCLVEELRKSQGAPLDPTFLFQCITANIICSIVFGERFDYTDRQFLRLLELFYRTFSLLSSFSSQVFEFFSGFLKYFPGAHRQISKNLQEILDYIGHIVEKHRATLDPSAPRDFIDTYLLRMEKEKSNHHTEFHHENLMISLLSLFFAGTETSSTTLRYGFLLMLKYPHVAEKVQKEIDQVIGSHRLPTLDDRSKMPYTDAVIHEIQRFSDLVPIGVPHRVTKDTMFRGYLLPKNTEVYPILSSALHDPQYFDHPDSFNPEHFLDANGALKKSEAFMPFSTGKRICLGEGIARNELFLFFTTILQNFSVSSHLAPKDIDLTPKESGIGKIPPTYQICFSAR
Kind of data set: Fluorescence-based CYP assay, recombinant CYP2B1, substrate EFC. Type of data set: in vitro ADME. Here is the method:
These assays were performed by methods similar to those described by VanAlstine and Hough, Stresser et al., Wulff et al., Henderson et al., and Crespi et al., with minor modifications. All incubations were performed in a final volume of 200 µL of 50 mM potassium phosphate buffer at pH 7.4 containing 1% acetonitrile. CYP inhibitor studies were performed according to the parameters of Table 1. Substrate concentrations were chosen to be near known Km values. As described in the references cited, two different NADPH regenerating systems were used depending on the substrates used (Table 1). Inhibitors were added to either “low” NADPH-regenerating system (final concentration of 8.1 µM NADP^+, 0.4 mM glucose-6-phosphate, 0.4 mM magnesium chloride, 0.2 U/mL glucose-6-phosphate dehydrogenase) or to “high” NADPH-regenerating system (final concentration of 1.3 mM NADP^+, 3.3 mM glucose-6-phosphate, 3.3 mM magnesium chloride, 0.4 U/mL glucose-6-phosphate dehydrogenase) in a total of 0.1 mL buffer. […] For assays utilizing “low” regenerating systems, product formation was monitored continuously by a Victor3 1420 Multilabel Plate Counter at the designated wavelengths (Table 1). […] Product formation was then measured at the designated wavelengths (Table 1). […]

Data set [2] addresses T2, CYP1A2r (Rattus norvegicus, UniProt P04799).
T2 sequence (P04799 1-513): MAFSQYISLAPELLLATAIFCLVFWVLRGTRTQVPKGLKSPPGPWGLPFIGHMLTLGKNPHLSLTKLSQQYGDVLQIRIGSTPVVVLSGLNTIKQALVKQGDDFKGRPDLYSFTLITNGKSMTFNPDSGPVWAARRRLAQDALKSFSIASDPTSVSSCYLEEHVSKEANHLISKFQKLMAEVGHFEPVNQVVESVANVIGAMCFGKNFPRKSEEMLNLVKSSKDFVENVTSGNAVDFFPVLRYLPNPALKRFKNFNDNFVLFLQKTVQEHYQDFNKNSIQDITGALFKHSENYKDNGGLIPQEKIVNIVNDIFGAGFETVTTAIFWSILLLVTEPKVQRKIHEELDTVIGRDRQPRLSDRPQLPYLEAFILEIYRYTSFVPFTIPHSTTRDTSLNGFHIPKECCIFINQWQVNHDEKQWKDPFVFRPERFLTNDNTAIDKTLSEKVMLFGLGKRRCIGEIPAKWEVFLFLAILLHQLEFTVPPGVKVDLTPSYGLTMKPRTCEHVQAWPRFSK
Kind of data set: Fluorescence-based CYP assay, recombinant CYP1A2r, substrate EFC. Type of data set: in vitro ADME. Here is the method:
(§1) These assays were performed by methods similar to those described by VanAlstine and Hough, Stresser et al., Wulff et al., Henderson et al., and Crespi et al., with minor modifications. All incubations were performed in a final volume of 200 µL of 50 mM potassium phosphate buffer at pH 7.4 containing 1% acetonitrile. CYP inhibitor studies were performed according to the parameters of Table 1. Substrate concentrations were chosen to be near known Km values. As described in the references cited, two different NADPH regenerating systems were used depending on the substrates used (Table 1). […] Samples were pre-incubated at 37°C for the designated times, and the reactions were initiated with the addition of a substrate and enzyme mixtures (Table 1). […] For the assays utilizing the “high” regenerating system, enzyme reactions were terminated at the designated time by the addition of 75 µL of 2N NaOH, followed by a 2 h post-incubation at 37°C. Product formation was then measured at the designated wavelengths (Table 1). For the “low” regenerating system assays, blanks and standards were prepared in 0.1 mL buffer without the regenerating system. For the “high” regenerating system assays, blanks and standards containing 0.1 mL of buffer received 75 µL of 2N NaOH following pre-incubation.

The target in data set [3] is T3, CYP3A4 (Homo sapiens, UniProt P08684). The data set can be described thus: CYP3A4 assay with LVS as substrate (LC-MS/MS). As to conditions: for IC50 at 20 min: human; for IC50: substrate LVS 10 µM. Type of data set: in vitro ADME. How it is done:
CYP3A4-containing Supersomes (2 pmol) were incubated with LVS (10 µM) in a 200 µl reaction mixture containing 0.1 M potassium phosphate buffer, pH 7.4, 1.0 mM NADPH, and 3 mM MgCl2 for 20 min at 37°C. The reaction was initiated by the addition of NADPH, and terminated by the addition of 400 µL of acetonitrile to the reaction mixture. Samples were extracted and analyzed for the two major LVS metabolites 6′β-hydroxy LVS and 6′-exomethylene LVS by LC-MS-MS exactly as described.

Data set [4] addresses T3, CYP3A4. The data set can be described thus: Fluorescence-based CYP3A4 assay with BFC as substrate. The data set is classed as in vitro ADME. How it is done: as §1
The target in data set [5] is T3, CYP3A4. Also on record: method as in PMID 10884437. Particulars: 10 µM; cited from earlier work.

“Also recorded” adds a separate entry of the source. Read-outs that look alike come from different tables or passages of the source. A value given as a limit tells only on which side of the number the result lay.

By IC50 is commonly meant the concentration needed to halve the response being measured.

T3 sequence (P08684 whole entry): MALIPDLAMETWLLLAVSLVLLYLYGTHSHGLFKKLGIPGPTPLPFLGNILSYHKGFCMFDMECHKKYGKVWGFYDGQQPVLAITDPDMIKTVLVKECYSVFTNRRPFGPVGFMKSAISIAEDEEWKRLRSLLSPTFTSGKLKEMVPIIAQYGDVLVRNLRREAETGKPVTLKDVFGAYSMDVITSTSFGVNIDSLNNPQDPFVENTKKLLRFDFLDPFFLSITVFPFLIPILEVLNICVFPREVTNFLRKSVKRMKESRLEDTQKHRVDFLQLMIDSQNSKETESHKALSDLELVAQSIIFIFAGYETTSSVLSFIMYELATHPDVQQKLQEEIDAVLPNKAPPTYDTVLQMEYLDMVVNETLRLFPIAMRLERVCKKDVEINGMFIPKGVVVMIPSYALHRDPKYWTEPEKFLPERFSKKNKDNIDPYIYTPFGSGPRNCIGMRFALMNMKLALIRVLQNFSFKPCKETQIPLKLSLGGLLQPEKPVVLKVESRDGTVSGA

Turning to `Clc1ccccc1C(c1ccccc1)(c1ccccc1)n1ccnc1` [Clotrimazole], the “Inhibition of CYP2B1 (in words)” value in data set [1] (positive control) is “potent inhibitor”. Besides, the “Inhibition of CYP1A2r (in words)” value in data set [2] (clotrimazole concentration-response, Fig. 1C) is recorded as “only partly inhibited”.

With `Clc1ccccc1C(c1ccccc1)(c1ccccc1)n1cccn1` [TRAM-34, 1-[(2-chlorophenyl)diphenylmethyl]-1H-pyrazole], the IC50 at 20 min in data set [3] (pH 7.4, IC50, formation of 6′-exomethylene LVS by CYP3A4, substrate LVS 10 µM) was 640 nM; in data set [3] (pH 7.4, IC50, formation of 6′β-hydroxy LVS by CYP3A4, substrate LVS 10 µM) it was 920 nM. For the same molecule, the IC50 in data set [3] (read-out: IC50, formation of 6′-exomethylene LVS by CYP3A4) was about 1000 nM; in data set [3] (read-out: IC50, formation of 6′β-hydroxy LVS by CYP3A4), about 1000 nM; in data set [1], 3000 nM; in data set [2], over 80000 nM. Also, the “Effect on CYP3A4 activity with BFC (in words)” value in data set [4] (substrate BFC) is recorded as “concentration-dependent stimulation”. Also, in data set [4] (substrate BFC 50 µM, maximum stimulation), the “Magnitude of stimulation of CYP3A4 with BFC” value is about 200%. Also, the “Inhibition of CYP1A2r (in words)” value in data set [2] (concentrations up to 80 µM) was “no inhibition; also recorded: no inhibitory effects”. For the same molecule, in data set [5], the “Inhibition of CYP3A4 with BFC as substrate (in words)” value is “did not inhibit”.
